Experimental findings from patent publication US8088602B1, “Manipulation of RNA stability and protein synthesis using thio-phosphate” (priority 2001, dated 2012) are described below.

Data set [1] deals with Pichia canadensis. In words: Growth in phosphate depleted YPD media with thio-phosphate/phosphate ratios. It is filed as cell-based. As to conditions: phosphate levels ~1 g/L, full range of ratios (100% to 0%). As for the experimental part: (§1) The stabilization of RNA by growth in thio-phosphate media can be used to enhance the protein synthesis of many proteins. The optimal level of thio-phosphate to phosphate must be determined as well absolute levels of total phosphate that are tolerable. Growth in all cases is enhanced by using enriched media prepared by depleting inherent phosphate. To deplete phosphate by precipitation, MgSO4 and ammonium hydroxide are added to the media of choice. YPD (1% Bacto-yeast extract, 2% Bacto-peptone, 2% Dextrose) phosphate depleted media is prepared by adding 10 ml of 1 M MgSO4 and 10 ml of concentrated NH4OH per liter and allowing the ppt. to form by leaving the solution at room temp. for 30 min. The media is then filtered and the pH readjusted to pH 6.5. Using this procedure, the detectable amount of ortho-phosphate remaining is less than ˜200 mg/liter. […] It is best to innoculate at high densities using, for example a 1:20 dilution. Insufficient innoculum (low density) will result in poor growth.

The test system of data set [2] is S. cerevisiae. The description is as above. The class given is cell-based. As to conditions: phosphate levels ~1 g/L, full range of ratios (100% to 0%). As for the experimental part: as §1
For data set [3], the system named is lipase. Put plainly: Secreted lipase of yeast, qualitative assays. The class given is cell-based. The protocol:
(§2) An additional assay was developed to examine the effects of thio-phosphate media on the synthesis of secreted proteins. Yeast excrete many extracellular hydrolases and the mRNAs for […] adenine, histidine, leucine, lysine, and uracil (Sp, BIO101). Various S. cerevisiase strains are able to grow in minimal media containing thio-phosphate: multiploid fleischmann's yeast strain, haploid strain ATTC# 32119, and diploid strain BJ3505 (Sigma). The haploid strain Pichia canadensis ATTC# 14355 grew better with a yeast nitrogen based media (YNB, BIO 101) as opposed to EMM. Note that the optimal level of total phosphate for yeast is ˜1 g/L which is much less than that for bacteria. Again if necessary to improve growth use nutrient broths depleted of phosphate (see below).
The mRNA is in the size range expected for a mature mRNA in which the intron sequences have been removed (FIG. 1). […] The actin probe is prepared by amplification of yeast genomic DNA (act), YFL039C, Saccharomyces Genome Database http://genome-www2.standford.edu) with the following PCR primers: • SEQ ID NO. 1: 5′ GAGGTTGCTGCTTTGGTTATTG 3′ 22 bp • SEQ ID NO. […] The probe is hybridized according to S&S protocols and detected by chemilumescence using polaroid film. […] Extracellular nucleases are detected by monitoring the degradation of genomic DNA by gel electrophoresis.

The test system of data set [4] is beta-galactosidase. Put plainly: Recombinant beta-galactosidase colormetric assay (X-gal) in bacterial cells. As to conditions: for effect on beta-galactosidase enzyme activity: 2% lactose minimal media. It is filed as cell-based. As for the experimental part:
A recombinant vector containing the beta-galactosidase gene (Promega's TA vector expressed from an SP6 promoter) can also be examined. Enzyme activity is detected via a colormetric assay. Cells are grown in minimal media made with 2% lactose rather than glucose for optimal induction of beta-galactosidase. After several (˜4-5) hrs bacterial cells are removed to assay for enzyme activity. To 0.5 ml of cells add 0.5 ml of 200 mM Tris-HCL, pH 7.5 and 5 ul of 1% SDS (sodium dodecyl sulfate). Then add 10 ul of IPTG (100 mM) and 20 ul of X-gal (50 mg/ml), mix and incubate at 37° C. […] In the presence of glucose which represses the enzyme, the activity is much lower but can be enhanced 10 fold by using a 50% ratio of thio-phosphate to phosphate.

Data set [5] concerns pFLAG-ATS-BAP (bacterial alkaline phosphatase) expression in JM109. Put plainly: Bacterial expression of pFLAG-ATS-BAP, colormetric staining of whole cells (NBT/BCIP). It is filed as cell-based, bacterial cells (JM109). The protocol:
Bacterial expression can be examined using the recombinant vector pFLAG-ATS-BAP (Sigma Chemical; U.S. Pat. Nos. 4,703,004, 4,782,137 EP Patent 150126, and JP Patent 1983150) marked with bacterial alkaline phosphatase and under the control of a tac/lac hybrid promoter induced by IPTG. This control plasmid is expressed in the periplasmic fraction by virtue of the N-terminal OmpA signal at high levels. Enzyme activity is easily visualized using colormetric staining of whole cells. 0.5 ml of cells are pelleted and resuspended in pH 9.5 buffer (0.1 M Tris-HCL, 0.1 M NaCL, 50 mM MgCl2) along with 10 ul of NBT (nitroblue tetrazolium, 50 mg/ml) and 5 ul of BCIP (5-bromo-4-chloro-3-indolylphosphate, 50 mg/ml). After sufficient time (there may be a slight delay in the activity of induced cells) the samples are compared and then centrifuged to compare pellets. Various ratios of modified phosphate to phosphate are examined: 0%, 10%, 15%, 20%, 25%, 30%, 40%, 50%, 60, 70%, 80%, 90% and 100%. […] To determine the optimal ratio a lower level of lactose is used in the media to prevent the formation of inclusion bodies during the analysis (M9 minimal media made with 0.1% rather than 0.5% lactose, total phosphate levels of 10 g/L). […]

For data set [6], the system named is DNA of intestinal cells. In words: DNase resistance of intestinal DNA from fish kept in thio-phosphate media. It is filed as in vivo, Carassius auratus. Conditions: 0.5 units DNase, room temp. As for the experimental part: (§3) Thio-phosphate can also be utilized by whole animals and/or complex tissues. Carassius auratus incorporates thio-phosphate into the DNA of intestinal cells; these cells are known to turnover in adults. Fish can be maintained in distilled water with NovAqua and AmQuel conditioners (U.S. Pat. No. 4,666,610). Goldfish flakes are also added for food. Normal phosphate levels in the aquarium are less than 1 mg/L (Hanna Phosphate Test Kit; Hanna Instruments). Fish are transferred to 100 ml of conditioned media with up to 250 mg/L of thio-phosphate added. […] Fresh media is prepared daily. Fish are sacrificed and DNA prepared from intestinal cells using DNAzol™ (Molecular Research Center Ohio). The DNA samples are then tested for resistance to DNase digestion. Samples are incubated in a 50 ul rxn with ˜lug of DNA and 0.5 units of DNase for 0, 5, 10, 15 min. at room temp. DNA from 250 mg/L thio-phosphate media is much more resistant than wildtype DNA or DNA from 25 mg/L thio-phosphate media. Normal DNA and 25 mg/L thio-phosphate treated DNA is digested after 5 min. while 250 mg/L thio-phosphate treated DNA persists beyond 15 min. of digestion (FIG. 3).

Data set [7] concerns bacteria. Put plainly: Soluble protein levels, biuret reagent, bacteria. It is filed as cell-based. Conditions: low ratios of thio-phosphate to phosphate (10-30%). The protocol: (§4) At higher ratios a slight decline in growth appears to account for a reduction in total protein synthesis detected. To measure protein synthesis 4 ml of cells are pelleted washed in PBS and resuspended in lysozyme solution for bacteria. Cells are then pelleted again and washed in PBS to remove lysozyme. Cells are then lysed in 400 ul of 1% SDS and 0.2 N NaOH. The extract is then diluted in water to 2 ml and assayed using the biuret reagent (Gornall et al (1949) J. Biol. Chem. 177:751). Yeast are assayed without lysozyme.

Data set [8] has as its system Extracellular nucleases. Put plainly: Extracellular nuclease activity of yeast (degradation of genomic DNA by gel electrophoresis). The class given is cell-based. As for the experimental part:
as §2
The mRNA is in the size range expected for a mature mRNA in which the intron sequences have been removed (FIG. 1). […] The actin probe is prepared by amplification of yeast genomic DNA (act), YFL039C, Saccharomyces Genome Database http://genome-www2.standford.edu) with the following PCR primers: • SEQ ID NO. 1: 5′ GAGGTTGCTGCTTTGGTTATTG 3′ 22 bp • SEQ ID NO. 2: 5′ TTGTGGTGAACGATAGATGGAC 3′ 22 bp PCR cycling parameters using a BIO-RAD thermal cycler and Taq polymerase are as follows: initial denaturation at 94° C. for 4 min. followed by 33 cycles of denaturation at 94° C. for 30 sec, annealing at 45° C. for 30 sec, elongation at 72° C. for 3 min. followed by a final elongation at 72° C. for 7 min. […] Total RNA (˜0.5 ug) is separated on a 2% high resolving agarose gel and transferred to a neutral nylon membrane. The probe is hybridized according to S&S protocols and detected by chemilumescence using polaroid film. […] Extracellular nucleases are detected by monitoring the degradation of genomic DNA by gel electrophoresis.

The subject of data set [9] is Carassius auratus. In words: Tolerance of fish kept in conditioned media with thio-phosphate. It is filed as in vivo. As to conditions: up to 250 mg/L of thio-phosphate in conditioned media, two days. The protocol: as §3
Data set [10] has as its system yeast actin mRNA. Put plainly: Northern analysis of actin mRNA in yeast grown in thio-phosphate media. It is filed as cell-based, S. cerevisiae. Conditions: 100% thio-phosphate substituted media; ~0.5 ug total RNA. The protocol: To maximize mRNA levels cells are grown in minimal media substituted with 100% thio-phosphate. Bacteria and yeast grow quite well in such media. For E. coli minimal media is prepared as follows: (Na3SPO3.XH2O) 10-15 g/L and KCL (1.5 g/L) (NH4)2SO4, 1 g/L; sodium citrate 2H2O, 0.5 g/L; Adjust pH to 7.4 and sterile filter. Then add the following: MgSO4.7H2O, 0.2 g/L (sterilized separately as a conc. solution); (thiamine HCL, 5 ug/L; glucose, 4 g/L sterilized separately by filtration). Glucose can also be sterilized by autoclaving separately. FeCl2 (500 ug/L) can also be added as needed. Thio-phosphate contains variable amounts of water (10-15 per molecule) not included in molecular weight calculations. It is almost 50% water by weight. Note pH control is important in maximizing thio-phosphate stability. […] When adapting to other bacteria determine the sensitivity of the organism to thio-phosphate levels. Optimize for KCL as this often is provided as a salt of normal phosphate. […]
The mRNA is in the size range expected for a mature mRNA in which the intron sequences have been removed (FIG. 1). […] The probe is hybridized according to S&S protocols and detected by chemilumescence using polaroid film. […] Extracellular nucleases are detected by monitoring the degradation of genomic DNA by gel electrophoresis.

In data set [11] the test system is YEpFLAG-1-BAP (bacterial alkaline phosphatase) expression in yeast cells (BJ3505 strain). In words: Recombinant FLAG-tagged secreted bacterial alkaline phosphatase synthesis in yeast (immuno test strips, dilution assays). The class given is cell-based, S. cerevisiae. As for the experimental part:
as §1
To test for optimal protein synthesis conditions the following system can be used: a recombinant YEp plasmid containing a secreted bacterial alkaline phosphatase gene (YEpFLAG-1-BAP, Sigma; U.S. Pat. Nos. 4,703,004, 4,782,137 EP Patent 150126, and JP Patent 1983150) marked with the FLAG™ peptide DYKDDDDK. […]

Data set [12] concerns yeast. In words: Soluble protein levels, biuret reagent, yeast. It is filed as cell-based. Conditions: low ratios of thio-phosphate to phosphate (10-30%). The protocol: as §4

The structures appear in SMILES notation. Some results are limits rather than exact numbers.

For `[Na+].[Na+].[Na+].[O-]P([O-])([O-])=S` [thio-phosphate, Na3SPO3.XH2O], the growth entry in data set [1] and in data set [2] was “adequate growth” each time. In data set [3], the increase of lipase result is “less than two fold”. For the same molecule, the “effect on beta-galactosidase enzyme activity” value in [4] (higher ratios (50-70%)) was “recovers from inhibition”; in [4] (low ratios of thio-phosphate to phosphate (5-30%)) it was “inhibited”. In addition, the “enhancement of beta-galactosidase activity” value in [4] (in the presence of glucose, 50% ratio of thio-phosphate to phosphate) came to 10 fold. Moreover, the “BAP activity elevated over controls” value in data set [5] (50% ratio, low lactose levels) is recorded as “several fold”. In data set [5] (low lactose (0.1%) M9 minimal media, total phosphate 10 g/L), the “optimal ratio of modified phosphate to phosphate for BAP enzyme activity” value worked out at 50%. In data set [6] (25 mg/L thio-phosphate media), the “time after which DNA is digested by DNase” value was at most 5 min. In addition, the “time DNA persists under DNase digestion” value in data set [6] (250 mg/L thio-phosphate media) is over 15 min. In addition, the soluble protein levels result in data set [7] and in [12] was “not enhanced” throughout. Also, the “increase of extracellular nuclease activity” value in [8] (10% ratio of thio-phosphate to phosphate) is “two to three fold increase”. Further, the “effect on extracellular nuclease activity” value in data set [8] (ratios above 70%) was “slightly inhibitory”; in [8] (ratios beyond 30%), “not stimulatory”. The “adverse reactions in fish” value in data set [9] is “No adverse reactions”. In addition, in [10], the “stabilization of actin mRNA” value is given as “significant stabilization”. Further, in data set [11] (weight equivalent ratio, grown overnight, following cessation of growth, ratios 100-0 tested), the “ratio of thio-phosphate to normal phosphate at which maximal synthesis occurs” value is listed as about 10%. For the same molecule, in data set [11] (~10% ratio, dilution assays), the “increase of FLAG-BAP protein compared to normal media with an equivalent amount of phosphate” value was “about ten fold”.
